These results are taken from US11078160B2, “Ethynyl compounds, their preparation and their therapeutic use for the treatment of malaria” (SANOFI, priority 2017, dated 2021).

Common to all, as to type: cell-based
Experiment [1] deals with strain NF54 of P. falciparum. The experiment can be described thus: 3H-hypoxanthine incorporation growth inhibition assay, P. falciparum NF54. The protocol: The biological activity of compounds of formula (I) according to the invention has been tested on the basis of an IC50 evaluation against the strain NF54 of P. falciparum.
For Hypoxanthine assay, parasite cultures were grown in 100 mm petri-dishes in growth media having 5% haematocrit in tri-gas incubator (Cat #3131, Thermo Scientific Forma Series II Water Jacketed CO2 incubator, sold by Thermofisher) having controlled gas mixtures of 4% CO2 and 3% O2 at temperature 37° C.
Parasite growth and morphology was observed daily using thin smears at 100× (oil immersion) magnification following staining with Giemsa stain.
Parasites use hypoxanthine included in the growth media as a precursor in nucleic acid synthesis. Accordingly, by replacing hypoxanthine in the media by a radioactive hypoxanthine, such as ^3H-hypoxanthine as indicated here-under, the rate of DNA replication and growth rate of the parasites can be measured, in particular in the presence of the tested compounds of the invention.
The growth media used for the above-indicated parasites contains 1 L of RPMI-1640 (sold by Invitrogen), […] of Albumax II (sold by Invitrogen), 5 mg of Hypoxanthine (sold by Sigma), 25 mM Hepes (sold by Invitrogen) and 2.5 mg of Gentamycin (sold by Sigma).
The screening media used contains 1 L of RPMI-1640 (sold by Invitrogen), […] of Albumax II (sold by Invitrogen), 25 mM Hepes (sold by Invitrogen) and 2.5 mg of Gentamycin (sold by Sigma).
For this assay, the above described screening media was used, as well as 20 Ci/mmol of a radioactive hypoxanthine (the ligand ^3H-hypoxanthine (20 Ci/mmol, 1 mCi/mL) sold by the American Radiolabeled Chemicals (ARC) from St Louis, Mo.), some Top Seal A (sold by Perkin Elmer), 96 Well Cell Culture plates (CellStar® sold by Greiner Bio-One GmbH), MicroScint® 20 (sold by Perkin Elmer) and GFB plates (sold by Perkin Elmer).
On each 96 well plate, 3 compounds of formula (I) according to the invention as well as one standard compound (positive control) are each tested in 12 wells in duplicate.
Said standard compound is a mixture of Artesunate and Chloroquine, two well-known anti malaria compounds.
The maximum activity value of the parasites is determined as positive control by observing the parasites in the presence of erythrocytes, while the minimum activity value of the parasites is determined in a negative control by observing the erythrocytes in the absence of parasites.
The tested compounds of the invention were assayed at a final concentration of 10 μM.
In order to do so, stock solutions at a concentration of […] of compound to be tested are made available in high recovery vials at a concentration of 10 mM. From this, a 20 μM stock in Screening media is prepared ([…] of 10 mM compound+996 μl of screening media) to keep % DMSO at 0.4.
Starting from 20 μM stock solution, 100 μl is added in the assay plate already containing 100 μl of screening media and 1:2 fold serial 12 point dilutions are made in the plate (10 μM to 4.8 nM) (100 μl of compound is mixed with 100 μl of screening media already present in plates, and so on).
P. falciparum culture diluted to 0.3% p and 1.25% h—synchronous ring stage. The assay was carried out in sterile, in the 96-well plate.
100 μL of P. falciparum culture was added per well and were then incubated at 37° C. for 48 hours. Smears are then made to check for growth of culture control after 48 hours of incubation.
Once ensured that the culture has grown in % p, 50 μL of 3H-Hypoxanthine (0.5 μCi/well) is added in each well, and the assay plate is further incubated for 24 hours.
After 72 hours, the assay plates are harvested on GFB plates. In order to remove nonspecific binding, the plates are washed with 2.5 ml of cooled distilled water and GFB plates were kept for drying at 37° C. over night or 60° C. for 1 hour.
50 μL of Microscint®-20 was added to each well.
The plates are then read in Top Count (45 sec/well).
The assay data were analysed using Graph pad prism ver.5 software. […]

For experiment [2], the system named is P. vivax clinical field isolates. In words: Ex vivo drug susceptibility assay (schizont maturation, flow cytometry) on P. vivax clinical field isolates. Conditions: for Drug susceptibility difference between species: P. falciparum versus P. vivax clinical field isolates. The text has this:
The biological activity of compound 1b according to the invention has been tested on the basis of an IC50 evaluation against the strain P. vivax.
Plasmodium isolates were collected from patients attending malaria clinics in Timika (Papua, Indonesia), a region endemic for multidrug-resistant strains of P. vivax and P. falciparum. Patients with symptomatic malaria presenting to an outpatient facility were recruited into the study if singly infected with P. falciparum or P. vivax, with a parasitaemia of between […], and the majority (>60%) of parasites at ring stage of development. Venous blood (5 mL) was collected by venepuncture and after removal of host white blood cells by using Plasmodipur filters (EuroProxima B.V., The Netherlands), packed infected red blood cells (iRBCs) were used for the ex vivo drug susceptibility assay.
Standard anti-malarial drugs chloroquine (CQ), piperaquine (PIP), mefloquine (MFQ), and artesunate (AS) (WWARN QA/QC Reference Material Program), and experimental compound 1b were prepared as 1 mg/mL stock solutions in H2O or dimethyl sulfoxide (DMSO) according to the manufacturers' instructions. Drug plates were pre-dosed by diluting the compounds in 50% Methanol followed by lyophilisation and stored at 4° C.
(§1) Drug susceptibility of P. vivax and P. falciparum isolates was measured using a protocol modified from the WHO microtest (see for instance in Marfurt J. et al., Antimicrob Agents Chemother. 2011 September; 55(9):4461).
(§2) Two hundred μL of a 2% haematocrit Blood Media Mixture (BMM), consisting of RPMI 1640 medium plus 10% AB+ human serum (P. falciparum) or McCoy's 5A medium plus 20% AB+ human serum (P. vivax) was added to each well of pre-dosed drug plates containing 11 serial concentrations (2-fold dilutions) of the anti-malarials (maximum concentration shown in brackets) CQ (2,993 nM), PIP (1,029 nM), MFQ (338 nM), AS (49 nM), and compound 1b (237 nM). A candle jar was used to mature the parasites at 37° C. for 35-56 hours. Incubation was stopped when >40% of ring stage parasites had reached the mature schizont stage in the drug-free control wells as determined by light microscopy.
Parasite growth was quantified by nucleic acid staining and data acquisition using flow cytometry as described in detail elsewhere6. Parasite growth was quantified for each drug concentration and normalised to the control well.
The dose-response data were analysed using nonlinear regression analysis and the half-maximal inhibition of growth (IC50) value derived using an inhibitory sigmoid Emax model (In Vitro Analysis and Reporting Tool; IVART7).
Drug plate quality was assured by running schizont maturation assays with the chloroquine-resistant strain K1 and the chloroquine-sensitive strain FC27.

The test system of experiment [3] is P. falciparum clinical field isolates. In words: Ex vivo drug susceptibility assay (schizont maturation, flow cytometry) on P. falciparum clinical field isolates. Conditions: Plasmodium falciparum, isolates from Timika (Papua, Indonesia), 35-56 hours. As to the method: Plasmodium isolates were collected from patients attending malaria clinics in Timika (Papua, Indonesia), a region endemic for multidrug-resistant strains of P. vivax and P. falciparum. Patients with symptomatic malaria presenting to an outpatient facility were recruited into the study if singly infected with P. falciparum or P. vivax, with a parasitaemia of between […], and the majority (>60%) of parasites at ring stage of development. […]
as §1
as §2, with “A candle jar was used to mature the parasites at 37° C. for 35-56 hours.” left out, “microscopy. […]” for “microscopy.”

Where [4] appears, read: Plasmodium falciparum, NF54, upper bound as printed, 72 hours, 3H-hypoxanthine incorporation, read-out: NF54 IC50.
Where [5] appears, read: measured values printed under the bound, 72 hours, 3H-hypoxanthine incorporation, read-out: NF54 IC50 (nM), measured values.

Counter-ions that a name gives are not always drawn. Like-named read-outs stand apart in the source and are kept apart here.

As for `Cc1ccc(C#Cc2cc(C(=O)NC(=N)N)cc(C(F)(F)F)c2)cc1C(=O)Nc1ccccn1` [Compound 4, 5-((3-(carbamimidoylcarbamoyl)-5-trifluoromethyl)phenyl)ethynyl)-2-methyl-N-(pyridin-2-yl)benzamide hydrochloride], the concentration for half-maximal inhibition (IC50) in experiment [1] (setting [4]) was less than 10 nM.

With `N=C(N)NC(=O)c1cc(C#Cc2ccc(C(F)(F)F)c(C(N)=O)c2)cc(C(F)(F)F)c1` [Compound 8], the IC50 in experiment [1] (setting [4]) was less than 100 nM.

Regarding `Cc1cccc(NC(=O)c2cc(C#Cc3cc(F)cc(C(=O)NC(=N)N)c3)ccc2C(F)(F)F)n1` [Compound 3, 5-((3-(carbamimidoylcarbamoyl)-5-fluorophenyl)ethynyl)-N-(6-methylpyridin-2-yl)-2-(trifluoromethyl)benzamide hydrochloride], in experiment [1] (setting [4]), the IC50 was less than 25 nM.

For `N=C(N)NC(=O)c1cc(C#Cc2ccc(C(F)(F)F)c(C(=O)Nc3ccccn3)c2)cc(C(F)(F)F)c1` [Compound 1a, 5-((3-(carbamimidoylcarbamoyl)-5-(trifluoromethyl)phenyl)ethynyl)-N-(pyridin-2-yl)-2-(trifluoromethyl)benzamide], the IC50 is less than 10 nM in experiment [1] (setting [4]) and 7 nM in experiment [1] (setting [5]).

In the case of `OC(c1cc(C(F)(F)F)nc2c(C(F)(F)F)cccc12)C1CCCCN1` (stereo not drawn) [mefloquine], the “Drug susceptibility difference between species” value in experiment [2] is given as “did not differ significantly”.

As to `C[C@H]1[C@H](OC(=O)CCC(=O)O)O[C@@H]2O[C@@]3(C)CC[C@H]4[C@H](C)CC[C@@H]1[C@@]24OO3` [artesunate], the “Drug susceptibility difference between species” value in experiment [2] is “did not differ significantly”.

Consider `N=C(N)NC(=O)c1cc(C#Cc2ccc(C(F)(F)F)c(C(=O)Nc3ccc(O)cn3)c2)cc(C(F)(F)F)c1` [Compound 5, 5-((3-(carbamimidoylcarbamoyl)-5-(trifluoromethyl)phenyl)ethynyl)-N-(5-hydroxypyridin-2-yl)-2-(trifluoromethyl)benzamide hydrochloride], for which the IC50 in experiment [1] (setting [4]) was less than 10 nM.

With `Cc1cccc(NC(=O)c2cc(C#Cc3cc(C(=O)NC(=N)N)cc(C(F)(F)F)c3)ccc2C)n1` [Compound 2, 5-((3-((diaminomethylene)carbamoyl)-5-(trifluoromethyl)phenyl)ethynyl)-2-methyl-N-(6-methylpyridin-2-yl)benzamide hydrochloride], the IC50 in experiment [1] (Plasmodium falciparum, NF54, read-out: NF54 IC50 (nM)) is less than 25 nM.

Regarding `N=C(N)NC(=O)c1cc(F)cc(C#Cc2ccc(C(F)(F)F)c(C(=O)Nc3ccccn3)c2)c1` [Compound 7, 5-((3-(carbamimidoylcarbamoyl)-5-fluorophenyl)ethynyl)-N-(pyridin-2-yl)-2-(trifluoromethyl)benzamide hydrochloride], the 50% inhibitory concentration (IC50) in experiment [1] (setting [4]) is less than 20 nM.

For `Clc1ccc2c(N3CCN(CCCN4CCN(c5ccnc6cc(Cl)ccc56)CC4)CC3)ccnc2c1` [piperaquine], the “Drug susceptibility difference between species” value in experiment [2] is reported as “did not differ significantly”.

For `N=C(N)NC(=O)c1cc(C#Cc2ccc(C(F)(F)F)c(C(=O)Nc3ccccn3)c2)cc(C(F)(F)F)c1` [Compound 1c, 5-((3-(carbamimidoylcarbamoyl)-5-(trifluoromethyl)phenyl)ethynyl)-N-(pyridin-2-yl)-2-(trifluoromethyl)benzamide malonic acid], the IC50 is 17 nM in experiment [1] (setting [5]) and less than 20 nM in experiment [1] (upper bound, 72 hours, 3H-hypoxanthine incorporation, read-out: NF54 IC50).

On to `N=C(N)NC(=O)c1cc(C#Cc2ccc(Cl)c(C(=O)Nc3ccccn3)c2)cc(C(F)(F)F)c1` [Compound 6, 5-((3-(carbamimidoylcarbamoyl)-5-(trifluoromethyl)phenyl)ethynyl)-2-chloro-N-(pyridin-2-yl)benzamide hydrochloride], for which the IC50 in experiment [1] (setting [4]) is less than 10 nM.

In the case of `Cl.N=C(N)NC(=O)c1cc(C#Cc2ccc(C(F)(F)F)c(C(=O)Nc3ccccn3)c2)cc(C(F)(F)F)c1` [Compound 1b, 5-((3-(carbamimidoylcarbamoyl)-5-(trifluoromethyl)phenyl)ethynyl)-N-(pyridin-2-yl)-2-(trifluoromethyl)benzamide hydrochloride], the IC50 in experiment [1] (upper bound, 72 hours, 3H-hypoxanthine incorporation, hydrochloride, read-out: NF54 IC50) is less than 15 nM; in experiment [3], 18.9 nM; in experiment [2] (Plasmodium vivax, ex vivo, isolates from Timika (Papua, Indonesia), 35-56 hours), 12 nM. In experiment [2], the “Drug susceptibility difference between species” value is listed as “did not differ significantly”.
